# Test results published in patent publication US6150414A, “Compositions and methods for treating viral infections” (priority 1992, dated 2000).
# Where “and” joins values, the source holds several entries; their conditions need not be identical. Equal values may be shown once.
# Tests used:
# [1] = test system: Friend Leukemia Virus; experiment: FV-induced splenomegaly, PAC compounds in combination with AZT (Example 1(b)); assay type: in vivo, BALB/c mice; conditions: 5X AZT 20 micrograms per mouse
# Procedure: The effects of compositions according to the present invention on the increase in spleen size (splenomegaly) of BALB/c mice (Jackson Labs, Bar Harbor, ME) was examined. In these experiments, the virus (10^6 focus forming units--FFU) was inoculated intravenously and 100 micrograms of the compounds indicated in Table II were administered to the mice intraperitoneally 24 hours later. Each compound was administered once to two mice. The animals were sacrificed ten days later and their spleens weighed.
# As used in Table II (and subsequent Tables of this Example l(a) and (b), "average percent inhibition" is calculated as follows: [formula] wherein "ASWNC" designates "average spleen weight of negative control"; "ASWE" designates "average spleen weight of experimental (treated) subject"; and "ASWPC" designates "average spleen weight of positive control". Average spleen weight is the numerical average of spleen weights of each experimental group (in Table II each such group includes two members).
# The compounds of the present invention (100 micrograms per mouse) were also tested in combination with AZT (20 micrograms per mouse, twice a day) using otherwise the same methods as in Example 1(a) above. As representatives, compound #9 above (3-bromophenanthro (3,4-C), phenanthrene) and compound #10 (diindeno (1, 2, 3-CD/1', 2', 3'-IM) Perylene) were chosen. […] The compounds were administered i.p. either once or five times (once per day) alone or together with AZT (20 micrograms of AZT per mouse twice a day for five days?). Thus, in experiments where AZT was administered five times, a total of […] of AZT was received by each mouse (with a total of 500 micrograms of the PAC compound).
# [2] = test system: HIV; conditions: human, in vivo; cited from earlier work
compound,measurement,setting,value
"Cc1cn([C@H]2C[C@H](N=[N+]=[N-])[C@@H](CO)O2)c(=O)[nH]c1=O [AZT, 3'-azido-3'-dideoxythymidine, reference compound]",% Inhibition,[1],39%
same,Average Spleen Weight,[1],1.3895
same,Spleen weight,[1]; single animal,1.3744 and 1.4046
same,clinical toxicity of AZT,[2],"dose-dependent suppression of bone marrow, resulting in anemia and leukopenia"
